Measured values published in PubChem BioAssay (NCI).
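Following 48 hours of exposure in 96-well plates, responses at five concentrations were used to interpolate endpoints linearly. GI50: concentration for 50% inhibition of growth. TGI denotes the concentration required for complete inhibition of growth.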

Experiments:
Experiment in all cases: NCI-60 cell line screen, 48 h
[1] = test system: HCT-15 colon
[2] = test system: EKVX NSCLC
[3] = test system: HCT-116 colon
[4] = test system: SK-MEL-28 melanoma
[5] = test system: COLO 205 colon
[6] = test system: CAKI-1 renal
[7] = test system: SK-OV-3 ovarian
[8] = test system: UACC-257 melanoma
[9] = test system: SK-MEL-5 melanoma
[10] = test system: SR leukemia
[11] = test system: SF-295 CNS
[12] = test system: A549 NSCLC
[13] = test system: NCI/ADR-RES ovarian
[14] = test system: MOLT-4 leukemia
[15] = test system: NCI-H522 lung
[16] = test system: K-562 leukemia
[17] = test system: SNB-75 CNS
[18] = test system: M14 melanoma
[19] = test system: NCI-H23 lung
[20] = test system: 786-0 renal
[21] = test system: HOP-92 NSCLC
[22] = test system: NCI-H460 lung
[23] = test system: KM12 colon
[24] = test system: HT29 colon
[25] = test system: HOP-62 NSCLC
[26] = test system: RXF 393 renal
[27] = test system: OVCAR-4 ovarian
[28] = test system: MDA-MB-231 breast
[29] = test system: MCF7 breast
[30] = test system: U251 CNS
[31] = test system: SF-539 CNS
[32] = test system: CCRF-CEM leukemia
[33] = test system: UO-31 renal
[34] = test system: HS 578T breast
[35] = test system: A498 renal
[36] = test system: UACC-62 melanoma
[37] = test system: LOX IMVI melanoma
[38] = test system: SN12C renal
[39] = test system: T-47D breast
[40] = test system: IGROV1 ovarian
[41] = test system: TK-10 renal
[42] = test system: MALME-3M melanoma
[43] = test system: DU-145 prostate
[44] = test system: HL-60(TB) leukemia
[45] = test system: NCI-H226 lung
[46] = test system: SW-620 colon
[47] = test system: SNB-19 CNS
[48] = test system: BT-549 breast
[49] = test system: PC-3 prostate
[50] = test system: RPMI-8226 leukemia
[51] = test system: OVCAR-3 ovarian
[52] = test system: HCC-2998 colon
[53] = test system: ACHN renal
[54] = test system: SK-MEL-2 melanoma
[55] = test system: SF-268 CNS
[56] = test system: OVCAR-5 ovarian
[57] = test system: MDA-MB-435
[58] = test system: OVCAR-8 ovarian

SMILES: CCO/C=N/C1=C(C#N)C(c2ccc(OC)cc2)c2sc3c(CC)cccc3c2O1 (stereo unspecified)
- GI50 [1]: 0.92 µM
- TGI [1]: 10.4 µM
- GI50 [2]: 3.47 µM
- TGI [2]: 17.3 µM
- GI50 [3]: 1.03 µM
- TGI [3]: 11.7 µM
- GI50 [4]: 7.74 µM
- TGI [4]: 25 µM
- GI50 [5]: 3.52 µM
- TGI [5]: 12.9 µM
- GI50 [6]: 1.9 µM
- TGI [6]: 19.3 µM
- GI50 [7]: 5.3 µM
- TGI [7]: 20.9 µM
- GI50 [8]: 13.1 µM
- TGI [8]: 38.2 µM
- GI50 [9]: 4.86 µM
- TGI [9]: 17 µM
- GI50 [10]: 0.821 µM
- TGI [10]: 25 µM
- GI50 [11]: 0.475 µM
- TGI [11]: 1.96 µM
- GI50 [12]: 2.59 µM
- TGI [12]: 34.1 µM
- GI50 [13]: 0.566 µM
- TGI [13]: 13.9 µM
- GI50 [14]: 3.28 µM
- TGI [14]: 26.2 µM
- GI50 [15]: 1.18 µM
- TGI [15]: 6.01 µM
- GI50 [16]: 0.678 µM
- TGI [16]: 30.8 µM
- GI50 [17]: 0.366 µM
- TGI [17]: 4.02 µM
- GI50 [18]: 1.5 µM
- TGI [18]: 11.8 µM
- GI50 [19]: 3.09 µM
- TGI [19]: 16.4 µM
- GI50 [20]: 3.06 µM
- TGI [20]: 17.5 µM
- GI50 [21]: 1.67 µM
- TGI [21]: 16.7 µM
- GI50 [22]: 3.46 µM
- TGI [22]: 12.8 µM
- GI50 [23]: 2.63 µM
- TGI [23]: 21.7 µM
- GI50 [24]: 3.22 µM
- TGI [24]: 11.6 µM
- GI50 [25]: 5.63 µM
- TGI [25]: 22.4 µM
- GI50 [26]: 1.72 µM
- TGI [26]: 4.83 µM
- GI50 [27]: 4.26 µM
- TGI [27]: 16.3 µM
- GI50 [28]: 4.05 µM
- TGI [28]: 24.1 µM
- GI50 [29]: 1.25 µM
- TGI [29]: 13 µM
- GI50 [30]: 3.77 µM
- TGI [30]: 16.3 µM
- GI50 [31]: 1.75 µM
- TGI [31]: 4.5 µM
- GI50 [32]: 1.23 µM
- TGI [32]: 20.8 µM
- GI50 [33]: 3.29 µM
- TGI [33]: 16.1 µM
- GI50 [34]: 2.3 µM
- TGI [34]: 9.55 µM
- GI50 [35]: 0.472 µM
- TGI [35]: 7.6 µM
- GI50 [36]: 1.04 µM
- TGI [36]: 18.4 µM
- GI50 [37]: 2.31 µM
- TGI [37]: 14.5 µM
- GI50 [38]: 3.73 µM
- TGI [38]: 18.1 µM
- GI50 [39]: 3.13 µM
- TGI [39]: 15.8 µM
- GI50 [40]: 1.53 µM
- TGI [40]: 17.5 µM
- GI50 [41]: 9.77 µM
- TGI [41]: 24.2 µM
- GI50 [42]: 10.9 µM
- TGI [42]: 25 µM
- GI50 [43]: 3.55 µM
- TGI [43]: 14.9 µM
- GI50 [44]: 1.92 µM
- TGI [44]: 14.5 µM
- GI50 [45]: 6.65 µM
- TGI [45]: 25.4 µM
- GI50 [46]: 1.45 µM
- TGI [46]: 16.4 µM
- GI50 [47]: 3.35 µM
- TGI [47]: 15.5 µM
- GI50 [48]: 4.56 µM
- TGI [48]: 19.4 µM
- GI50 [49]: 1.5 µM
- TGI [49]: 12.6 µM
- GI50 [50]: 2.74 µM
- TGI [50]: 11.8 µM
- GI50 [51]: 3.59 µM
- TGI [51]: 18.1 µM
- GI50 [52]: 2.01 µM
- TGI [52]: 5.98 µM
- GI50 [53]: 3.36 µM
- TGI [53]: 17.2 µM
- GI50 [54]: 5.76 µM
- TGI [54]: 22.7 µM
- GI50 [55]: 7.49 µM
- TGI [55]: 29.2 µM
- GI50 [56]: 5.19 µM
- TGI [56]: 18.4 µM
- GI50 [57]: 0.373 µM
- TGI [57]: 1.51 µM
- GI50 [58]: 3.24 µM
- TGI [58]: 18 µM
